Where two headings read alike, the source gives them in different places.
Columns and labels:
[1] = target: T1, porcine pancreatic elastase (PPE) (Sus scrofa, UniProt P00772); assay: Inactivation of porcine pancreatic elastase (PPE); assay type: biochemical
T1 construct: from tissue; host or cells: porcine pancreas (from the name)
Experimental: (§1) Inactivation rates of serine proteases by substituted isocoumarins were measured by the incubation method. An aliquot of inhibitor (25 or 50 μl) in Me2 SO was added to a buffered enzyme solution (0.01-2.3 μM) to initiate the inactivation. Aliquots (50 μl) were withdrawn at various intervals and the residual enzymatic activity was measured. Me2 SO concentration in the reaction mixture was 8-12% (v/v). 0.1 Hepes, 0.01M CaCl2, pH 7.5 buffer was utilized for trypsin and coagulation enzymes. 0.1M Hepes, 0.5M NaCl, pH 7.5 was utilized for other serine proteases. […] Peptide thioesters or peptide nitroanilides with appropriate sequence were used as substrates for various serine proteases. All peptide thioester hydrolysis rates were measured with assay mixtures containing 4,4'-dithiodipyridine (ε324 =19800M^-1 cm^-1 ; Grasetti & Murray, Arch. Biochem. Biophys. 119, pp 41-49 (1967)). Peptide 4-nitroanilide nitroanilide hydrolysis was measured at 410 nm (ε410 =8800M^-1 cm^-1 ; Erlanger et al., Arch. Biochem. Biophys. 95, pp 271-278 (1961)). First order inactivation rate constant (kobs) were obtained from plots of ln (vt /vo) vs time, and the correlation coefficients were greater than 0.98.
(§2) ^a Inactivation rates were measured at 0.1M Hepes, 0.5 NaCl, pH 7.5,
(§3) 8-12% Me2 SO and 25° C. by incubation method.
(§4) ^a Inhibition rates were measured in 0.1M Hepes, 0.05M NaCl, pH 7.5
buffer, 8-9% Me2 SO and at 25° C.
(§5) ^a Inhibition constants were in 0.1M Hepes, 0.5M NaCl, pH 7.5 buffer,
8-9% Me2 SO and at 25° C.
(§6) ^a Inhibition rates were measured in 0.1M Hepes, 0.5M NaCl, 2.5%
Me2 SO, pH 7,5 and at 25° C.
(§7) ^a Inhibition was measured in 0.1M Hepes, 0.5M NaCl, pH 7.5 buffer,
(§8) 5-10% Me2 SO and at 25° C. Suc--Val--Pro--Phe--NA (0.48 mM)
(§9) was used as the substrate for chymotrypsin and cat G.
(§10) ^a Inhibition rates were measured in 0.1M Hepes, 0.5M NaCl, pH 7.5

[2] = target: chymotrypsin (Bos taurus, UniProt P00766); assay: Inactivation of chymotrypsin; assay type: biochemical, bovine; conditions: read-out: kobs/[I]
[3] = target: T2, cathepsin G (Homo sapiens, UniProt P08311); assay: Inactivation of cathepsin G; assay type: biochemical; parameters: percentage of inhibition: concentration or dose not given beside the values; conditions: for kinact/KI: read-out: kobs/[I]
T2 construct: from tissue; host or cells: human leukocytes
T2 sequence (P08311 21-255): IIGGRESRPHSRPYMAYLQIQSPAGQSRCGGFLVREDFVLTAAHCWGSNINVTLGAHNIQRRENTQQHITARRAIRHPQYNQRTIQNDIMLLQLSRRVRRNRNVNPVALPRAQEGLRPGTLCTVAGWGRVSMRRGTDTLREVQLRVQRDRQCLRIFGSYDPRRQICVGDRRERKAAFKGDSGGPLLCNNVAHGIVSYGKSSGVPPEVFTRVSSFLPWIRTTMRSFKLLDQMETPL

[4] = target: T3, human leukocyte elastase (HLE) (Homo sapiens, UniProt P08246); assay: Inactivation of human leukocyte elastase (HLE); assay type: biochemical
T3 construct: from tissue; host or cells: human leukocytes (from the name)
T3 sequence (P08246 30-267): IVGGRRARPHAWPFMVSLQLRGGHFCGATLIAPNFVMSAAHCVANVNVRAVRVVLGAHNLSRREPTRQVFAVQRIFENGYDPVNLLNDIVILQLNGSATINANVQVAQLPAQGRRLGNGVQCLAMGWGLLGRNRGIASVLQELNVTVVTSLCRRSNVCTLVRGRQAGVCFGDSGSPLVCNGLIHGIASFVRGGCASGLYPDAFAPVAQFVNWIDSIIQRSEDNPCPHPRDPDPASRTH
Experimental: as §1, §2, §3, §4
buffer, 8-9% Me2 SO and at 25° C.
as §5
8-9% Me2 SO and at 25° C.
as §6
Me2 SO, pH 7,5 and at 25° C.
as §7, §8, §9, §10

[5] = Table XVI, pH 7.5, 25° C, [I] 0.04-2.0 mM, read-out: kobs/[I]
[6] = Table XVI, pH 7.5, 25° C, [I] 1.7-58 μM
[7] = Table XVI, pH 7.5, 25° C, [I] 0.07-710 μM, read-out: kobs/[I]
[8] = pH 7.5, Table XII, 2.5% Me2SO, 25° C, [I] 0.7-1.9 μM, read-out: kobs/[I]
[9] = pH 7.5, Table XII, 2.5% Me2SO, 25° C, [I] 8.7-87 μM
[10] = pH 7.5, Table XVI, second order, equimolar inhibitor and enzyme, read-out: kobs/[I]
[11] = Table XVI, pH 7.5, 25° C, [I] 35-710 μM
[12] = Table XI, pH 7.5, 25° C, [I] 6.3-600 μM, per line, read-out: kobs/[I]
[13] = Table XI, pH 7.5, 25° C, [I] 1.4-6.6 μM, per line, read-out: kobs/[I]

T1 sequence (P00772 27-266): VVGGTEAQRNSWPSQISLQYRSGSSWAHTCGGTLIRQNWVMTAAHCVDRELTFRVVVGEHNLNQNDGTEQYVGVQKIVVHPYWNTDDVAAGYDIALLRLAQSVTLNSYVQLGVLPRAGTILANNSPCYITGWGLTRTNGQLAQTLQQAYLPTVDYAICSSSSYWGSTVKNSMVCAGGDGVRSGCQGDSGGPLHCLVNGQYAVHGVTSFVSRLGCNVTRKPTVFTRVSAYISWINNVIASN

CC(C)(C)OC(=O)N[C@H](Cc1ccccc1)C(=O)Nc1ccc2c(Cl)c(OCCBr)oc(=O)c2c1 [7-(N-t-butyloxycarbonyl-D-phenylalanyl)amino-4-chloro-3-(2-bromoethoxy)isocoumarin]
kinact/KI [1, 5]: 30 M⁻¹ s⁻¹ | kinact/KI [2, 6]: 150 M⁻¹ s⁻¹ | percentage of inhibition ([3]; Table XVI, after 5 min incubation): 19%

CC(C)(C)OC(=O)N[C@H](Cc1ccccc1)C(=O)Nc1ccc2c(Cl)c(OCCCBr)oc(=O)c2c1 [7-(N-t-butyloxycarbonyl-D-phenylalanyl)amino-4-chloro-3-(3-bromopropoxy)isocoumarin]
kinact/KI [4, 7]: 1480 M⁻¹ s⁻¹ | kinact/KI [2, 6]: 70 M⁻¹ s⁻¹

CC(C)(C)OC(=O)N[C@@H](Cc1ccccc1)C(=O)Nc1ccc2c(Cl)c(OCCCBr)oc(=O)c2c1 [7-(N-t-butyloxycarbonyl-L-phenylalanyl)amino-4-chloro-3-(3-bromopropoxy)isocoumarin]
kinact/KI [4, 7]: 1320 M⁻¹ s⁻¹ | kinact/KI [2, 6]: 490 M⁻¹ s⁻¹

CCCOc1oc(=O)c2cc(NC(=O)[C@@H](NC(=O)OC(C)(C)C)C(C)C)ccc2c1Cl [7-(N-t-butyloxycarbonyl-valyl)amino-4-chloro-3-propyloxyisocoumarin]
kinact/KI [4, 8]: 64000 M⁻¹ s⁻¹ | kinact/KI [3, 9]: 17 M⁻¹ s⁻¹

O=C(O)c1cccc(NC(=S)Nc2ccc3c(Cl)c(OCCBr)oc(=O)c3c2)c1 [7-(m-carboxyphenyl)thiocarbamoylamino-4-chloro-3-(2-bromoethoxy)isocoumarin]
kinact/KI [4, 10]: > 240000 M⁻¹ s⁻¹ | kinact/KI [2, 6]: 1960 M⁻¹ s⁻¹ | kinact/KI [3, 11]: 320 M⁻¹ s⁻¹

CCCOc1oc(=O)c2cc(NC(=O)c3cccc([N+](=O)[O-])c3)ccc2c1Cl [7-(m-nitrobenzoyl)amino-4-chloro-3-propyloxyisocoumarin]
kinact/KI [4, 8]: > 210000 M⁻¹ s⁻¹ | kinact/KI [3, 9]: 4 M⁻¹ s⁻¹

O=C(O)c1ccc(NC(=S)Nc2ccc3c(Cl)c(OCCBr)oc(=O)c3c2)cc1 [7-(p-carboxyphenyl)thiocarbamoylamino-4-chloro-3-(2-bromoethoxy)isocoumarin]
kinact/KI [4, 10]: > 390000 M⁻¹ s⁻¹ | kinact/KI [2, 6]: 1720 M⁻¹ s⁻¹ | kinact/KI [3, 11]: 450 M⁻¹ s⁻¹

CCCOc1oc(=O)c2cc(NC(=O)CSC)ccc2c1Cl [7-[(2-thiomethyl)acetyl]amino-4-chloro-3-propyloxyisocoumarin]
kinact/KI [4, 8]: > 152000 M⁻¹ s⁻¹ | kinact/KI [3, 9]: 28 M⁻¹ s⁻¹

COc1oc(=O)c2cc(NC(=O)OCc3ccccc3)ccc2c1Cl [7-benzyloxycarbonylamino-4-chloro-3-methoxyisocoumarin]
kinact/KI [1, 12]: 260 M⁻¹ s⁻¹ | kinact/KI [4, 13]: 71000 M⁻¹ s⁻¹

O=C(CCc1ccccc1)Nc1ccc2c(Cl)c(OCCCBr)oc(=O)c2c1 [7-dihydrocinnamoylamino-4-chloro-3-(3-bromopropoxy)isocoumarin]
kinact/KI ([4]; pH 7.5, Table XVI, biphasic plot, read-out: kobs/[I] (biphasic, first value)): 35600 M⁻¹ s⁻¹ | kinact/KI ([4]; pH 7.5, Table XVI, biphasic plot, read-out: kobs/[I] (biphasic, second value)): 9870 M⁻¹ s⁻¹ | kinact/KI [2, 6]: 600 M⁻¹ s⁻¹

COc1oc(=O)c2cc(NC(=O)C(F)(F)C(F)(F)C(F)(F)F)ccc2c1Cl [7-heptafluorobutyroylamino-4-chloro-3-methoxyisocoumarin]
kinact/KI ([1]; pH 7.5, read-out: kobs/[I]): 1100 M⁻¹ s⁻¹ | kinact/KI ([4]; pH 7.5, read-out: kobs/[I]): 47000 M⁻¹ s⁻¹

COc1oc(=O)c2cc(NC(=O)NC(C)C)ccc2c1Cl [7-isopropylcarbamoylamino-4-chloro-3-methoxyisocoumarin]
kinact/KI [1, 12]: 2300 M⁻¹ s⁻¹ | kinact/KI [4, 13]: 9000 M⁻¹ s⁻¹

COC(=O)CCCC(=O)Nc1ccc2c(Cl)c(OC)oc(=O)c2c1 [7-methoxyglutarylamino-4-chloro-3-methoxyisocoumarin]
kinact/KI [1, 12]: 2800 M⁻¹ s⁻¹ | kinact/KI [4, 13]: 54000 M⁻¹ s⁻¹

COC(=O)CCC(=O)Nc1ccc2c(Cl)c(OC)oc(=O)c2c1 [7-methoxysuccinylamino-4-chloro-3-methoxyisocoumarin]
kinact/KI [1, 12]: 2200 M⁻¹ s⁻¹ | kinact/KI [4, 13]: 43000 M⁻¹ s⁻¹

CNC(=O)Nc1ccc2c(Cl)c(OC)oc(=O)c2c1 [7-methylcarbamoylamino-4-chloro-3-methoxyisocoumarin]
kinact/KI [1, 12]: 1300 M⁻¹ s⁻¹ | kinact/KI [4, 13]: 9460 M⁻¹ s⁻¹

O=C(Nc1ccccc1)Nc1ccc2c(Cl)c(OCCBr)oc(=O)c2c1 [7-phenylcarbamoylamino-4-chloro-3-(2-bromoethoxy)isocoumarin]
kinact/KI [1, 5]: 36 M⁻¹ s⁻¹ | kinact/KI [4, 10]: 1.2e+06 M⁻¹ s⁻¹ | kinact/KI [2, 6]: 12 M⁻¹ s⁻¹

CCCOc1oc(=O)c2cc(NC(=O)Nc3ccccc3)ccc2c1Cl [7-phenylcarbamoylamino-4-chloro-3-propyloxyisocoumarin]
kinact/KI ([1]; pH 7.5, Table XII, 2.5% Me2SO, 25° C, [I] 34-56 μM, read-out: kobs/[I]): 520 M⁻¹ s⁻¹ | kinact/KI [4, 8]: 143000 M⁻¹ s⁻¹ | kinact/KI ([2]; pH 7.5, Table XII, 2.5% Me2SO, 25° C, [I] 3.4-70 μM): 6100 M⁻¹ s⁻¹

Reference: patent US5324648A, “Substituted isocoumarins as serine protease inhibitors and anti-inflammatory agents” (Georgia Tech Research Corporation, priority 1992, dated 1994)
